# *1 amine or outer side, *2 acyl side, *3 side chain or, on linkers, in order; H or OH if unused. Where a SMILES comes first, the peptide text is derived from it. Bridges are numbered along the chain shown (N, C = ends). Roman numbers before positions name the chains, in order. [ ]: non-standard residue; d: D form. Actinocin(9to1) = Cc1c2oc3c(C)ccc(C(=O)[*:1])c3nc-2c(C(=O)[*:2])c(N)c1=O; NMeV = CN[C@H](C(=O)O)C(C)C; Sar = CNCC(=O)O
# Key:
# [1] = system: resistant sublines of murine leukemia cells; conditions: cited from earlier work
# [2] = system: Chinese hamster ovary (CHO) cells, wildtype AuxB1; experiment: cells; assay type: cell-based; conditions: Cricetulus griseus, AuxB1, read-out: reduction in cell number below the value of completely untreated cultures
# [3] = system: Chinese hamster ovary (CHO) cells, drug resistant C5S32; experiment: In vitro cytotoxicity / potentiation of Actinomycin D in Chinese hamster ovary cells, drug resistant C5S32 (MTT); assay type: cell-based; conditions: 96 h, fraction of Act D alone (1.00)
# [4] = as above; assay type: cell-based; conditions: hamster, cho c5s32 cells, fraction of untreated cultures (1.00), read-out: Cytotoxicity, normalized absorbance, Drug Resistant C5S32, 0 (no Act D); for viability at 96 h, 1 µM: 1 μM potentiating agent alone; for viability at 96 h, 10 µM: 10 μM potentiating agent alone
# in vitro = assay type: cell-based, Chinese hamster; conditions: hamster, cho auxb1 cells
# [5] = In vitro cytotoxicity / potentiation of Actinomycin D in human KB epidermoid carcinoma cells, drug resistant KB V-1 (MTT); assay type: cell-based; conditions: human, kb v-1 cells, fraction of untreated cultures, read-out: Cytotoxicity, normalized absorbance, Drug Resistant KB V-1, 0 (no Act D); for viability at 96 h, 1 µM: 1 μM potentiating agent alone; for viability at 96 h, 10 µM: 10 μM potentiating agent alone
# [6] = system: human KB epidermoid carcinoma cells, drug resistant KB V-1; experiment: as above; assay type: cell-based; conditions: 96 h, fraction of Act D alone
# [7] = In vitro cytotoxicity / potentiation of Actinomycin D in human KB epidermoid carcinoma cells, wildtype KB 3-1 (MTT); assay type: cell-based; conditions: human, kb 3-1 cells, fraction of untreated cultures, read-out: Cytotoxicity, normalized absorbance, Wildtype KB 3-1, 0 (no Act D); for viability at 96 h, 1 µM: 1 μM potentiating agent alone; for viability at 96 h, 10 µM: 10 μM potentiating agent alone
# [8] = system: human KB epidermoid carcinoma cells, wildtype KB 3-1; experiment: as above; assay type: cell-based; conditions: 96 h, fraction of Act D alone
# [9] = 1 μM potentiating agent + Act D 0.5 μM
# [10] = 10 μM potentiating agent + Act D 0.5 μM
# [11] = 1 μM potentiating agent + Act D 20 nM
# [12] = 10 μM potentiating agent + Act D 20 nM
# [13] = 1 μM potentiating agent + Act D 0.1 nM
# [14] = 10 μM potentiating agent + Act D 0.1 nM
smiles,measurement,setting,value
COc1ccc([C@@H]2Sc3ccccc3N(CCN(C)C)C(=O)[C@@H]2OC(C)=O)cc1 [diltiazem],enhancement of the activity of antitumor agents against resistant sublines of murine leukemia cells,[1],enhance the activity of antitumor agents
CN(C)CCCN1c2ccccc2CCc2ccc(Cl)cc21 [clomipramine],enhancement of the activity of antitumor agents against resistant sublines of murine leukemia cells,[1],enhance the activity of antitumor agents
CN1CCN(CCCN2c3ccccc3Sc3ccc(C(F)(F)F)cc32)CC1 [trifluoperazine],enhancement of the activity of antitumor agents against resistant sublines of murine leukemia cells,[1],enhance the activity of antitumor agents
"Cc1c2oc3c(C)ccc(C(=O)N[C@@H]4C(=O)N[C@H](C(C)C)C(=O)N5CCC[C@H]5C(=O)N(C)CC(=O)N(C)[C@@H](C(C)C)C(=O)O[C@@H]4C)c3nc-2c(C(=O)N[C@@H]2C(=O)N[C@H](C(C)C)C(=O)N3CCC[C@H]3C(=O)N(C)CC(=O)N(C)[C@@H](C(C)C)C(=O)O[C@@H]2C)c(N)c1=O [Actinomycin D, reference compound] (I: T[dV]P[Sar][NMeV] / II: T[dV]P[Sar][NMeV]; ester I:1-I:C, II:1-II:C; linker I:N-II:N via Actinocin(9to1))",inhibition at 0.01 µM,[2],10 to 20%
C=C[C@H]1C[N@@]2CC[C@H]1C[C@@H]2[C@@H](O)c1ccnc2ccc(OC)cc12 [quinidine],enhancement of the activity of antitumor agents against resistant sublines of murine leukemia cells,[1],enhance the activity of antitumor agents
COC(=O)C1=C(C)NC(C)=C(C(=O)OCCN(C)Cc2ccccc2)C1c1cccc([N+](=O)[O-])c1 (stereo not drawn) [nicardipine],enhancement of the activity of antitumor agents against resistant sublines of murine leukemia cells,[1],enhance the activity of antitumor agents
CCN(CC)CCn1c(=O)c(Cc2ccc(OC)cc2)nc2ccccc21 [caroverine],enhancement of the activity of antitumor agents against resistant sublines of murine leukemia cells,[1],enhance the activity of antitumor agents
"CN(C)CC/C=C1/c2cc(Br)ccc2COc2ccccc21 [(C), (Z)-3-(9-Bromo-6,11-dihydrodibenz [b,e]oxepin-11-ylidene)-N,N-dimethylpropylamine]","Synergism with Actinomycin D, normalized absorbance, Drug Resistant C5S32, +ACT D",[3]; [9],0.90
same,"Synergism with Actinomycin D, normalized absorbance, Drug Resistant C5S32, +ACT D",[3]; [10],0.54
same,"viability at 96 h, 1 µM",[4],100%
same,"viability at 96 h, 10 µM",[4],100%
same,"viability at 96 h, 1 µM",in vitro,100%
same,"viability at 96 h, 10 µM",in vitro,92%
same,"viability at 96 h, 1 µM",[5],100%
same,"viability at 96 h, 10 µM",[5],34%
same,"Synergism with Actinomycin D, normalized absorbance, Drug Resistant KB V-1, +ACT D",[6]; [11],0.97
same,"Synergism with Actinomycin D, normalized absorbance, Drug Resistant KB V-1, +ACT D",[6]; [12],0.36
same,"viability at 96 h, 1 µM",[7],100%
same,"viability at 96 h, 10 µM",[7],100%
same,"Synergism with Actinomycin D, normalized absorbance, Wildtype KB 3-1, +ACT D",[8]; [13],0.78
same,"Synergism with Actinomycin D, normalized absorbance, Wildtype KB 3-1, +ACT D",[8]; [14],0.75
COc1ccc(CCN(C)CCCC(C#N)(c2ccc(OC)c(OC)c2)C(C)C)cc1OC (stereo not drawn) [Verapamil],enhancement of the activity of antitumor agents against resistant sublines of murine leukemia cells,[1],enhance the activity of antitumor agents
"Fc1ccc2c(c1)/C(=C\CCN1CCCC1)c1ccccc1CO2 [(T), (Z)-1-[3-(2-fluoro-6,11-dihydrodibenz [b,e]-oxepin-11-ylidene)propyl]pyrrolidine]","Synergism with Actinomycin D, normalized absorbance, Drug Resistant C5S32, +ACT D",[3]; [9],1.00
same,"Synergism with Actinomycin D, normalized absorbance, Drug Resistant C5S32, +ACT D",[3]; [10],0.53
same,"viability at 96 h, 1 µM",[4],100%
same,"viability at 96 h, 10 µM",[4],100%
same,"viability at 96 h, 1 µM",in vitro,100%
same,"viability at 96 h, 10 µM",in vitro,100%
same,"viability at 96 h, 1 µM",[5],96%
same,"viability at 96 h, 10 µM",[5],84%
same,"Synergism with Actinomycin D, normalized absorbance, Drug Resistant KB V-1, +ACT D",[6]; [11],0.92
same,"Synergism with Actinomycin D, normalized absorbance, Drug Resistant KB V-1, +ACT D",[6]; [12],0.64
same,"viability at 96 h, 1 µM",[7],86%
same,"viability at 96 h, 10 µM",[7],81%
same,"Synergism with Actinomycin D, normalized absorbance, Wildtype KB 3-1, +ACT D",[8]; [13],0.90
same,"Synergism with Actinomycin D, normalized absorbance, Wildtype KB 3-1, +ACT D",[8]; [14],0.83
